How the values were obtained:
[1] = system: Velvetleaf, Abutilon theophrasti; assay: Postemergence herbicidal evaluation, ABUTH; format: in vivo, Medic.
Outline: (§1)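 Greenhouse postemergence test. Seedlings about two weeks old sprayed (40 psi) with compound in 50/50 acetone/water, 0.5% TWEEN 20, at rates near 0.0157–0.500 kg/ha; rated 0–9 by eye at 4–5 weeks.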

[2] = system: Ragweed, Common, Ambrosia artemisifolia; assay: Postemergence herbicidal evaluation, AMBEL; format: in vivo, L.
Outline: as §1

[3] = system: Sicklepod, Cassia obtusifolia; assay: Postemergence herbicidal evaluation, CASOB; format: in vivo, L.
Outline: as §1

Galium, Galium aparine = assay: Postemergence herbicidal evaluation, GALAP; format: in vivo
Outline: as §1

[4] = system: Morningglory Spp., Ipomoea Spp.; assay: Postemergence herbicidal evaluation, IPOSS; format: in vivo; conditions: 0.2500 kg/ha
Experimental: In the tests, seedling plants are grown in jiffy flats for about two weeks. The test compounds are dispersed in 50/50 acetone/water mixtures containing 0.5% TWEEN®20, a polyoxyethylene sorbitan monolaurate surfactant of Atlas Chemical Industries, in sufficient quantities to provide the equivalent of about 0.0157 kg to 0.500 kg per hectare of active compound when applied to the plants through a spray nozzle operating at 40 psi for a predetermined time. After spraying, the plants are placed on greenhouse benches and are cared for in accordance with conventional greenhouse procedures. From four to five weeks after treatment, the seedling plants are examined and rated according to the rating system set forth below. Where more than one test is involved for a given compound, the data are averaged.
Results of herbicide evaluation are expressed on a rating scale (0-9). The scale is based upon a visual observation of plant stand, vigor, malformation, size, chlorosis and overall plant appearance as compared with a control.

[5] = system: Velvetleaf, Abutilon theophrasti; assay: Preemergence herbicidal evaluation, ABUTH; format: in vivo, Medic.; conditions: 0.2500 kg/ha
Outline: (§2)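 Sow seeds in soil-filled cups; spray aqueous acetone compound solution at about 0.0156–0.500 kg/ha; keep on greenhouse benches with routine watering; after four to five weeks, rate visual injury 0–9 compared with control plants.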

[6] = system: Ragweed, Common, Ambrosia artemisifolia; assay: Preemergence herbicidal evaluation, AMBEL; format: in vivo, L.; conditions: 0.2500 kg/ha
Outline: as §2

[7] = system: Barnyardgrass, Echinochloa crus-galli; assay: Preemergence herbicidal evaluation, ECHCG; format: in vivo, (L.) Beau; conditions: 0.2500 kg/ha
Outline: as §2

[8] = system: Foxtail, Green, Setaria viridis; assay: Preemergence herbicidal evaluation, SETVI; format: in vivo, (L.) Beau; conditions: 0.2500 kg/ha
Outline: as §2

[9] = system: Rice, Tebonnet, Oryza sativa; assay: Preemergence herbicidal evaluation, ORYSAT; format: in vivo, (L.) Tebonnet; conditions: 0.2500 kg/ha
Outline: as §2

Corn, Field, Zea mays = assay: Preemergence herbicidal evaluation, ZEAMX; format: in vivo, L.; conditions: 0.2500 kg/ha
Outline: as §2

[10] = system: ECHORC Watergrass (Calif.); assay: Preemergence weed control, flooded paddy (Table III); format: in vivo, Echinochloa oryzoides; set-up: scale not given here
Experimental: (§3) Preemergence herbicidal activity under flooded paddy conditions is determined as follows: plant seeds or propagating organs are planted in the top 0.5 cm of silt loam soil in 32 oz. plastic containers with a diameter of 10.5 cm and no drainage holes. Water is added to these containers and maintained at 1.5 to 3 cm above the soil surface for the duration of the experiment. The test compounds are applied as aqueous/acetone mixtures 50/50 v/v pipetted directly into the flood water to give the equivalent of about 0.0313 to 0.500 kg/ha of active ingredient. The treated containers are placed on greenhouse benches and cared for in accordance with conventional greenhouse procedures. Three to four weeks after treatment, the test is terminated and each container is examined and herbicidal effect rated according to the rating system provided in Example 185. The compounds evaluated are reported by compound number given in Example 185.

CYPIR Rice Flatsedge = assay: as above; format: in vivo, Cyperus iria; set-up: scale not given here
Experimental: as §3

ORYSAT Rice, Tebonnet = assay: Tolerance of transplanted rice to post-transplant application (Table III); format: in vivo, Oryza sativa; set-up: scale not given here; conditions: crop tolerance
Experimental: The tolerance of transplanted rice to post-transplanted herbicide applications is determined as follows: two ten-day-old rice seedlings (cv. Tebonnet) are transplanted into silt loam soil in 32 oz. plastic containers with a diameter of 10.5 cm and no drainage holes. After transplanting, the containers are flooded and the water level is maintained at 1.5 to 3 cm above the soil surface. Three days after transplanting, the flooded soil surface of the containers is treated with the selected aqueous/acetone 50/50 v/v mixture containing the test compounds to provide the equivalent of about 0.0313 to 0.500 kg/ha of active ingredient. The treated containers are placed on greenhouse benches, watered such that the water level is maintained as stated above, and cared for in accordance with conventional greenhouse procedures. Three to four weeks after treatment, the test is terminated and each container is examined and herbicidal effect rated according to the rating system provided in Example 185. The compounds evaluated are reported by compound number given in Example 185.

[11] = system: ECHORC Watergrass (Calif.); assay: Postemergence weed control, flooded paddy (Table IV); format: in vivo, Echinochloa oryzoides; set-up: scale not given here
Outline: (§4)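 Herbicidal effect is scored visually on a rating scale three to four weeks after compounds, in aqueous/acetone 50/50 v/v, are added to flood water at roughly 0.0313 to 0.500 kg/ha. Plants: weeds 3 to 5 cm tall, rice at 1.5 to 2.5 leaves.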

MOOVA Monochoria = assay: as above; format: in vivo, Monochoria vaginalis; set-up: scale not given here
Outline: as §4

| Structure (SMILES) | herbicide rating (0-9) ([1]; 0.2500 kg/ha) | herbicide rating (0-9) ([2]; 0.2500 kg/ha) | herbicide rating (0-9) ([3]; 0.2500 kg/ha) | herbicide rating (0-9) (Galium, Galium aparine; 0.2500 kg/ha) | herbicide rating (0-9) [4] | herbicide rating (0-9) [5] | herbicide rating (0-9) [6] | herbicide rating (0-9) [7] | herbicide rating (0-9) [8] | herbicide rating (0-9) [9] | herbicide rating (0-9) (Corn, Field, Zea mays) | herbicidal effect rating ([10]; 0.0625 kg/ha) | herbicidal effect rating ([10]; 0.1250 kg/ha) | herbicidal effect rating ([10]; 0.2500 kg/ha) | herbicidal effect rating ([10]; 0.5000 kg/ha) | herbicidal effect rating (CYPIR Rice Flatsedge; 0.0625 kg/ha) | herbicidal effect rating (CYPIR Rice Flatsedge; 0.1250 kg/ha) | herbicidal effect rating (CYPIR Rice Flatsedge; 0.2500 kg/ha) | herbicidal effect rating (CYPIR Rice Flatsedge; 0.5000 kg/ha) | herbicidal effect rating (ORYSAT Rice, Tebonnet; 0.0625 kg/ha) | other results |
| --- | --- | --- | --- | --- | --- | --- | --- | --- | --- | --- | --- | --- | --- | --- | --- | --- | --- | --- | --- | --- | --- |
| CCc1ccc(-c2nsc3ccc(-n4c(=O)cc(C(F)(F)F)n(C)c4=O)cc23)cc1 [Compound 5, 3-[3-(p-Ethylphenyl)-1,2-benzisothiazol-5-yl]-1-methyl-6-(trifluoromethyl)-2,4 (1H,3H)-pyrimidinedione] | 9.0 | 9.0 | 9.0 | 9.0 | 9.0 | 9.0 | 9.0 | 9.0 | 9.0 | 7.0 | 3.0 | 9.0 | 9.0 | 9.0 | 9.0 | 9.0 | 9.0 | 9.0 | 9.0 | 3.0 | herbicidal effect rating ([10]; 0.0313 kg/ha): 9.0; herbicidal effect rating (CYPIR Rice Flatsedge; 0.0313 kg/ha): 9.0; herbicidal effect rating (ORYSAT Rice, Tebonnet; 0.0313 kg/ha): 2.0; herbicidal effect rating (ORYSAT Rice, Tebonnet; 0.1250 kg/ha): 4.0; herbicidal effect rating (ORYSAT Rice, Tebonnet; 0.2500 kg/ha): 5.0; herbicidal effect rating (ORYSAT Rice, Tebonnet; 0.5000 kg/ha): 7.0; herbicidal effect rating ([11]; 0.1250 kg/ha): 6.0; herbicidal effect rating ([11]; 0.2500 kg/ha): 9.0; herbicidal effect rating ([11]; 0.5000 kg/ha): 9.0; herbicidal effect rating (MOOVA Monochoria; 0.1250 kg/ha): 9.0; herbicidal effect rating (MOOVA Monochoria; 0.2500 kg/ha): 9.0; herbicidal effect rating (MOOVA Monochoria; 0.5000 kg/ha): 9.0 |
| Cc1nsc2ccc(-n3c(=O)cc(C(F)(F)F)n(C)c3=O)cc12 [Compound 6, 1-Methyl-3-(3-methyl-1,2-benzisothiazol-5-yl)-6-(trifluoromethyl)-2,4(1H,3H)-pyrimidinedione] | 9.0 | 9.0 | 8.0 | 9.0 | 9.0 | 9.0 | 9.0 | 9.0 | 9.0 | 8.0 | 9.0 | 6.0 | 8.0 | 9.0 | 9.0 | 9.0 | 9.0 | 9.0 | 9.0 | 8.0 | herbicide rating (0-9) ([1]; 0.0630 kg/ha): 9.0; herbicide rating (0-9) ([2]; 0.0630 kg/ha): 6.5; herbicide rating (0-9) ([3]; 0.0630 kg/ha): 2.5; herbicide rating (0-9) (Galium, Galium aparine; 0.0630 kg/ha): 5.0; herbicidal effect rating (ORYSAT Rice, Tebonnet; 0.1250 kg/ha): 8.0; herbicidal effect rating (ORYSAT Rice, Tebonnet; 0.2500 kg/ha): 8.0; herbicidal effect rating (ORYSAT Rice, Tebonnet; 0.5000 kg/ha): 8.0; herbicidal effect rating ([11]; 0.1250 kg/ha): 9.0; herbicidal effect rating ([11]; 0.2500 kg/ha): 9.0; herbicidal effect rating ([11]; 0.5000 kg/ha): 9.0; herbicidal effect rating (MOOVA Monochoria; 0.1250 kg/ha): 9.0; herbicidal effect rating (MOOVA Monochoria; 0.2500 kg/ha): 9.0; herbicidal effect rating (MOOVA Monochoria; 0.5000 kg/ha): 9.0 |
| COc1cc(C)ccc1-c1nsc2ccc(-n3c(=O)cc(C(F)(F)F)n(C)c3=O)cc12 [Compound 7, 3-[3-(2-Methoxy-p-tolyl)-1,2-benzisothiazol-5-yl]-1-methyl-6-(trifluoromethyl)-2,4(1H,3H)-pyrimidinedione] | 9.0 | 9.0 | 9.0 | 8.0 | 9.0 | 9.0 | 9.0 | 9.0 | 9.0 | 8.0 | 7.0 | 9.0 | 9.0 | 9.0 | 9.0 | 9.0 | 9.0 | 9.0 | 9.0 | 8.0 | herbicidal effect rating ([10]; 0.0313 kg/ha): 9.0; herbicidal effect rating (CYPIR Rice Flatsedge; 0.0313 kg/ha): 9.0; herbicidal effect rating (ORYSAT Rice, Tebonnet; 0.0313 kg/ha): 6.0; herbicidal effect rating (ORYSAT Rice, Tebonnet; 0.1250 kg/ha): 7.0; herbicidal effect rating (ORYSAT Rice, Tebonnet; 0.2500 kg/ha): 7.0; herbicidal effect rating (ORYSAT Rice, Tebonnet; 0.5000 kg/ha): 9.0; herbicidal effect rating ([11]; 0.1250 kg/ha): 9.0; herbicidal effect rating ([11]; 0.2500 kg/ha): 9.0; herbicidal effect rating ([11]; 0.5000 kg/ha): 9.0; herbicidal effect rating (MOOVA Monochoria; 0.1250 kg/ha): 9.0; herbicidal effect rating (MOOVA Monochoria; 0.2500 kg/ha): 9.0; herbicidal effect rating (MOOVA Monochoria; 0.5000 kg/ha): 9.0 |
| COC(=O)COc1cc(C)ccc1-c1nsc2ccc(-n3c(=O)cc(C(F)(F)F)n(C)c3=O)cc12 [Compound 8, Methyl {{6-{5-[3,6-dihydro-3-methyl-4-(trifluoromethyl)-2,6-dioxo-1(2H)-pyrimidinyl]-1,2-benzisothiazol-3-yl}-m-tolyl}oxy}acetate] | 9.0 | 9.0 | 9.0 | 9.0 | 9.0 | 9.0 | 9.0 | 9.0 | 9.0 | 9.0 | 9.0 | 9.0 | 9.0 | 9.0 | 9.0 | 9.0 | 9.0 | 9.0 | 9.0 | 7.0 | herbicidal effect rating ([10]; 0.0313 kg/ha): 9.0; herbicidal effect rating (CYPIR Rice Flatsedge; 0.0313 kg/ha): 9.0; herbicidal effect rating (ORYSAT Rice, Tebonnet; 0.0313 kg/ha): 7.0; herbicidal effect rating (ORYSAT Rice, Tebonnet; 0.1250 kg/ha): 9.0; herbicidal effect rating (ORYSAT Rice, Tebonnet; 0.2500 kg/ha): 9.0; herbicidal effect rating (ORYSAT Rice, Tebonnet; 0.5000 kg/ha): 9.0; herbicidal effect rating ([11]; 0.1250 kg/ha): 9.0; herbicidal effect rating ([11]; 0.2500 kg/ha): 9.0; herbicidal effect rating ([11]; 0.5000 kg/ha): 9.0; herbicidal effect rating (MOOVA Monochoria; 0.1250 kg/ha): 9.0; herbicidal effect rating (MOOVA Monochoria; 0.2500 kg/ha): 9.0; herbicidal effect rating (MOOVA Monochoria; 0.5000 kg/ha): 9.0 |

From patent US6156700A, “3-(1,2-Benzisothiazol- and isoxazol-5-yl)-2,4(1H,3H)-pyrimidinedione or thione and 3-(1,2-benzisothiazol- and isoxazol-5-yl)-4(3H)-pyrimidinone or thione herbicidal agents” (American Cyanmid Company, priority 1998, dated 2000)
